Target: T1, human TLR8 (Homo sapiens, UniProt Q9NR97)
T1 construct: host or cells: HEK293 (TLR8/NF-κB/SEAPorter)
T1 sequence (Q9NR97 27-1041): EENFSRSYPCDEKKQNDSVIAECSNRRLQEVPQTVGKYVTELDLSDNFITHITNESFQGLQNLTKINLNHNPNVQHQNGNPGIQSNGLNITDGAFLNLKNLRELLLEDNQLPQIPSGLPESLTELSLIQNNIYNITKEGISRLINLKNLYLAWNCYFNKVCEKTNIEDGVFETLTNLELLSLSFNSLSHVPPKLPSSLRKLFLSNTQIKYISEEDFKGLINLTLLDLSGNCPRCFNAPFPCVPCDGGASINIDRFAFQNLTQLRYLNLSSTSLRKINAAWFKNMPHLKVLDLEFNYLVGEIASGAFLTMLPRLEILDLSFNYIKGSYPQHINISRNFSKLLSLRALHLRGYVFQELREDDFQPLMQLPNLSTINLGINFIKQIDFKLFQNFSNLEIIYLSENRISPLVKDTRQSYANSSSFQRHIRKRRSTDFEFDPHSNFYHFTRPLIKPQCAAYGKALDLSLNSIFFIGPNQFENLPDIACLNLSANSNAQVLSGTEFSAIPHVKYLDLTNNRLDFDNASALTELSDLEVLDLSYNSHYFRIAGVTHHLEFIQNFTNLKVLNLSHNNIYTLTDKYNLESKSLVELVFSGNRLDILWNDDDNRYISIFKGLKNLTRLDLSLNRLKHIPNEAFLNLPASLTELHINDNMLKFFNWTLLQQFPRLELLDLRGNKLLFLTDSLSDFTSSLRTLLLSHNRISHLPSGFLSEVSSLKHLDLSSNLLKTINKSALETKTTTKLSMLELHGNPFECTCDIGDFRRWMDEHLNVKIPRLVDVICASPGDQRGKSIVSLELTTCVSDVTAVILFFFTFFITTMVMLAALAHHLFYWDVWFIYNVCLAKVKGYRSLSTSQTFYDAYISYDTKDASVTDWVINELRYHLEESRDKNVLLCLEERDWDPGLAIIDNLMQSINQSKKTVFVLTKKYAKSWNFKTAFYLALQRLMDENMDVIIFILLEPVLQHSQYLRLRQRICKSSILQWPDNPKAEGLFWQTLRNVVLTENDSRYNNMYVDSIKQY
Assay: Human TLR8 reporter gene inhibitory activity assay (NF-κB/SEAP HEK293)
Type: cell-based
Design: key to human TLR8 activity, reporter signal: SEAP activity as absorbance at 405 nm
Settings: for human TLR8 activity, reporter signal: R848 30 μM
Protocol: Compounds were dissolved in dimethyl sulfoxide. Before stimulation with compound, Human TLR7 reporter cell line (TLR7/NF-κB/SEAPorter^TM HEK293 cell, Novus Biological, USA), human TLR8 reporter cell line (TLR8/NF-κB/SEAPorter^TM HEK293 cell, Novus Biological), and human TLR9 reporter cell line (TLR9/NF-κB/SEAPorter^TM HEK293 cell, Novus Biological) were seeded in 96-well microtiter plate (AGC techno glass, Japan) at 5 × 10^4 cells/well in DMEM (GIBCO, United Kingdam) with 10 % fetal bovine serum (GIBCO), and 10 ug/ml Blastcidin S HCl (GIBCO) and incubated at 37 °C in 5% CO2. […] The plates were then incubated an additional 20 ± 1 h at 37 °C in 5% CO2 and then the secreted embryonic alkaline phosphatase (SEAP) activity was measured as activation of human TLR7, 8, and 9. The SEAP activity was evaluated as follows: pNPP (Invitrogen, USA) was added to the incubated sample (50 μl/well); after 15 min, 4 M sodium hydroxide solution (nacalai tesque, Japan) was added thereto (50 μl/well) to quench the reaction; and the absorbance of each sample was measured at 405 nm with microplate reader SpectraMax M4 (Molecular Devices, USA).

Structure (SMILES) | human TLR8 activity, reporter signal (compound 0.0001 nM (as headed)) | human TLR8 activity, reporter signal (compound 0.001 nM (as headed)) | human TLR8 activity, reporter signal (compound 0.003 nM (as headed)) | human TLR8 activity, reporter signal (compound 0.01 nM (as headed)) | human TLR8 activity, reporter signal (compound 0.03 nM (as headed)) | human TLR8 activity, reporter signal (compound 0.1 nM (as headed)) | human TLR8 activity, reporter signal (compound 0.3 nM (as headed)) | human TLR8 activity, reporter signal (compound 1 nM (as headed)) | human TLR8 activity, reporter signal (compound 3 nM (as headed)) | human TLR8 activity, reporter signal (compound 10 nM (as headed)) | human TLR8 activity, reporter signal (compound 30 nM (as headed)) | human TLR8 activity, reporter signal (compound 100 nM (as headed)) | inhibition of TLR8
CCOc1nc(C)c2nc(-c3cncc(F)c3)n(Cc3ccc(CN4C[C@@H]5C[C@H]4CN5C)cc3)c2n1 [Cpd-7] | 2.3942 | 2.221 | 2.201 | 2.199 | 2.25 | 2.186 | 2.297 | 2.272 | 2.178 | 2.071 | 1.909 | 1.678 | 
CCCCOc1nc(N)c2nc(-c3cccnc3)n(Cc3ccccc3)c2n1 [Cpd-5] | 2.52 | 2.344 | 2.316 | 2.3178 | 2.3193 | 2.309 | 2.404 | 2.342 | 2.269 | 2.216 | 2.0417 | 2.1673 | without causing any inhibition
CCOc1nc(N)c2nc(-c3cncc(F)c3)n(Cc3ccc(CN4C[C@@H]5C[C@H]4CN5C)cc3)c2n1 [Cpd-6] | 2.3942 | 2.34 | 2.276 | 2.199 | 2.181 | 2.241 | 2.31 | 2.218 | 2.159 | 2.04 | 1.859 | 1.331 | 

Source: article PMC7562955 (Nature Communications, 2020)
